# From patent publication US20230079819A1, “COMPOUNDS AND USES THEREOF” (Foghorn Therapeutics Inc., priority 2019, published 2023)
# Read-outs that look alike come from different tables or passages of the source.
# Key:
# BRG-1 = target: T1, BRG-1 (Homo sapiens, UniProt P51532); experiment: ATPase catalytic activity of BRG-1, ADP-Glo in vitro biochemical assay; conditions: 30 nM BRG-1, 400 μM ATP
# T1 construct: made in house; host or cells: High Five insect cells
# BRM = target: T2, BRM (Homo sapiens, UniProt P51531); experiment: ATPase catalytic activity of BRM, ADP-Glo in vitro biochemical assay; conditions: 30 nM BRM, 400 μM ATP
# T2 construct: made in house; host or cells: High Five insect cells
# T2 sequence (P51531 whole entry): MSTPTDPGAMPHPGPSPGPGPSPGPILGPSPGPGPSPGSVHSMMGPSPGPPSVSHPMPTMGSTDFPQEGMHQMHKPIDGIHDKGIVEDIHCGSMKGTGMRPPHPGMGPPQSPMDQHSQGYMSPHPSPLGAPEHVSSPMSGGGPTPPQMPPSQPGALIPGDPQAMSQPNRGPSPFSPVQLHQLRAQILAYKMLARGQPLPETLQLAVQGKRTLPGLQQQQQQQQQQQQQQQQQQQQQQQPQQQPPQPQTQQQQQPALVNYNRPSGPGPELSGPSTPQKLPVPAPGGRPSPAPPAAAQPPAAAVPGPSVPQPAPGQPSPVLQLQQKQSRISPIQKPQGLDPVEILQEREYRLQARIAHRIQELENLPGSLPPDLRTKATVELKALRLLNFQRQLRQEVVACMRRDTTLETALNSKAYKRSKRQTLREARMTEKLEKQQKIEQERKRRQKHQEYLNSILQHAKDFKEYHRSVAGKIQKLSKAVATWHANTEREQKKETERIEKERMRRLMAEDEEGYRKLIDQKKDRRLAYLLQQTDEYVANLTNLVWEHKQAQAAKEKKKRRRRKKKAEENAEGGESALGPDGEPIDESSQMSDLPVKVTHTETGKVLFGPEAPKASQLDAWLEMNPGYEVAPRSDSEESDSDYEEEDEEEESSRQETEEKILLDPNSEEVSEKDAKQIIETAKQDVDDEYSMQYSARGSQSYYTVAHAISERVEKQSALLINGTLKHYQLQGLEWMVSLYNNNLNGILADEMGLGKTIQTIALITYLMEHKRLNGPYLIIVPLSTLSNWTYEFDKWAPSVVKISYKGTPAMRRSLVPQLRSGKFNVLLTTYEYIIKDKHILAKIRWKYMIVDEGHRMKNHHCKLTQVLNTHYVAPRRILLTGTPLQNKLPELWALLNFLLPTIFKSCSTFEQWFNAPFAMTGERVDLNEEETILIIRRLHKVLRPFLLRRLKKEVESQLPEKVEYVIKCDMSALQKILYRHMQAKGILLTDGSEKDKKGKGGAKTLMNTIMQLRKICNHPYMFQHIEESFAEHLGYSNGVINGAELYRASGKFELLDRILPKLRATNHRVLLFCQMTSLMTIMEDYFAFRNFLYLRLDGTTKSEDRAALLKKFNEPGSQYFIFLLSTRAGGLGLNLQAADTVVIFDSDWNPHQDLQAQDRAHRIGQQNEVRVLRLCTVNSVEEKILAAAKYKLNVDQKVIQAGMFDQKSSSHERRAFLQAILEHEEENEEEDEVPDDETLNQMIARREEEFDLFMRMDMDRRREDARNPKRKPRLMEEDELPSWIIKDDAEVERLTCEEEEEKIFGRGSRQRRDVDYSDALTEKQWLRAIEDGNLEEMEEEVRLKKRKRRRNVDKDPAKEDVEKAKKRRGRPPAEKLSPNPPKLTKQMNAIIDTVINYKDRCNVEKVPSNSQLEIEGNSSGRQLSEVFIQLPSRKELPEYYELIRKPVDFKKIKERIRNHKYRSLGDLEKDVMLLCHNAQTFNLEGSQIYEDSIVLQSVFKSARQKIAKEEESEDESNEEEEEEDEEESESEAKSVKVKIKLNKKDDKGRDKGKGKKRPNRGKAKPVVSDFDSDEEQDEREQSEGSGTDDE
# [1] = ATPase catalytic activity, read-out: BRG1 IP50 (μM)*
# [2] = ATPase catalytic activity, read-out: BRM IP50 (μM)*
# [3] = ATPase catalytic activity, read-out: BRG1 IP50
# [4] = ATPase catalytic activity, read-out: BRM IP50
# T1 sequence (P51532 whole entry): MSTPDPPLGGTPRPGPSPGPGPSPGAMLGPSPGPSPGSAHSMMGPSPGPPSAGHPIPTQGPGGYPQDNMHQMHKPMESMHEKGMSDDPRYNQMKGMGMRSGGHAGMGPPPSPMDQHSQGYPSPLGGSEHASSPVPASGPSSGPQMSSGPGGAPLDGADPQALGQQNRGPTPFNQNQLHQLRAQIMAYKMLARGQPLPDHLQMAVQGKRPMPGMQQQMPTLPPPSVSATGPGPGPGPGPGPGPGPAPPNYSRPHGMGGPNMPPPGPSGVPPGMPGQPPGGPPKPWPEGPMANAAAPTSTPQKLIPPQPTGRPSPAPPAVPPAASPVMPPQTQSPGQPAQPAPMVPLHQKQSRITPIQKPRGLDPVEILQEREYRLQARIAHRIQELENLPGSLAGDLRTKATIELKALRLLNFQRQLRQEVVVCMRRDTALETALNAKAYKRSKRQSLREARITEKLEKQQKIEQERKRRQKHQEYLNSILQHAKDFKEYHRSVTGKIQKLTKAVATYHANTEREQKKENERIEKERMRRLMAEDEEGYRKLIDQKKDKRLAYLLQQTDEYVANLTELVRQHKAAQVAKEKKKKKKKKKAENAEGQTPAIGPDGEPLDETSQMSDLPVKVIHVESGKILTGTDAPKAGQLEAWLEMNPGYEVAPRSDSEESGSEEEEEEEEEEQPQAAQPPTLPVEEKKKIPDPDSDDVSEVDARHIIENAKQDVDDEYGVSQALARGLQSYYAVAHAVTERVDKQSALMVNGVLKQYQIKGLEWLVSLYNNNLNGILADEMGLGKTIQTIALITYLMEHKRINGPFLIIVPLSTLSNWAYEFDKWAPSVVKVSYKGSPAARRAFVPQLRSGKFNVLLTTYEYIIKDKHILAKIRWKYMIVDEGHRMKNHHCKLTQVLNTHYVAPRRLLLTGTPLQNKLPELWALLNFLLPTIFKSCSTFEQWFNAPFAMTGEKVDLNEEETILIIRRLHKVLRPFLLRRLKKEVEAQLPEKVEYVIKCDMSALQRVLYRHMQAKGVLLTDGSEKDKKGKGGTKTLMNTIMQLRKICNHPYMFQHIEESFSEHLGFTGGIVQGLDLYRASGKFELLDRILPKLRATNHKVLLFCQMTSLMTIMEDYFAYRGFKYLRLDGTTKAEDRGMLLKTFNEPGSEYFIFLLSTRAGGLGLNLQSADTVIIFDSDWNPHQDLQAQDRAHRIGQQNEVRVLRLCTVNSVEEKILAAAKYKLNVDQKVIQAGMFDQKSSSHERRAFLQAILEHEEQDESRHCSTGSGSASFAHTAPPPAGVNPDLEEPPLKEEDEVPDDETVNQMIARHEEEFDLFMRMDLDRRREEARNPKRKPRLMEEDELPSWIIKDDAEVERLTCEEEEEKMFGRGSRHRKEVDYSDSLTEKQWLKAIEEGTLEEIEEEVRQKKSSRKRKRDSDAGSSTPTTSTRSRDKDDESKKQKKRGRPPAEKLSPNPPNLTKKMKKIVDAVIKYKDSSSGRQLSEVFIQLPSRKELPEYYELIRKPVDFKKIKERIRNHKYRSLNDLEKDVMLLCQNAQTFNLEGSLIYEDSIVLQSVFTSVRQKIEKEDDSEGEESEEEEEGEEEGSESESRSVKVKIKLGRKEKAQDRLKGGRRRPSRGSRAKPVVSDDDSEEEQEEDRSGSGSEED
SMILES,IC50 (BRG-1; [1]) [µM],IC50 (BRM; [2]) [µM],IC50 (BRG-1; [3]) [µM],IC50 (BRM; [4]) [µM],also measured
CS(=O)(=O)n1ccc(C(=O)NCC(=O)Nc2nc(-c3cc(F)c4c(c3)OCC4)cs2)c1 [Compound 255],< 0.01,< 0.01,–,–,–
CS(=O)(=O)n1ccc(C(=O)NCC(=O)Nc2nc(-c3cccc(N4CC[C@H](C(F)F)C4)c3)cs2)c1 [Compound 585],–,–,> 0.01,< 0.01,–
C[C@@H]1CN(c2cccc(-c3csc(NC(=O)CNC(=O)c4ccn(S(=O)(=O)N(C)C)c4)n3)c2)C[C@H](C)O1 [Compound 221],> 0.01,> 0.01,–,–,–
CN1CCc2ccc(-c3csc(NC(=O)CNC(=O)c4ccn(C(C)(C)C)c4)n3)cc21 [Compound 263],> 0.01,> 0.01,–,–,–
CS(=O)(=O)n1ccc(C(=O)NCC(=O)Nc2nc(-c3cccc(OC(F)F)c3)cs2)c1 [Compound 285],> 0.01,> 0.01,–,–,–
CS(=O)(=O)n1ccc(C(=O)NCC(=O)Nc2nc(-c3cccc(N4C[C@H]5C[C@@H]4C[C@@H]5O)c3)cs2)c1 (racemic) [Compound 500],–,–,> 0.1,> 0.01,–
Cn1cc(-c2cccc(-c3csc(NC(=O)CNC(=O)c4ccn(S(C)(=O)=O)c4)n3)c2)nn1 [Compound 447],–,–,> 0.01,> 0.01,–
COC[C@H](NC(=O)c1cn(C2(C)COC2)cn1)C(=O)Nc1nc(-c2ccc3ccn(C)c(=O)c3c2)cs1 [Compound 804],–,–,–,–,IC50 (BRG-1; read-out: BRG1 IP50): > 0.1 µM; IC50 (BRM; read-out: BRM IP50): > 0.1 µM
"C[C@@H]1CN(c2cccc(-c3cccc(NC(=O)CNC(=O)c4ccn(S(C)(=O)=O)c4)c3F)c2)C[C@H](C)O1 [Compound 477, N-(2-((3′-(cis-2,6-dimethylmorpholino)-2-fluoro-[1,1′-biphenyl]-3-yl)amino)-2-oxoethyl)-1-(methylsulfonyl)-1H-pyrrole-3-carboxamide]",–,–,> 0.1,> 0.1,–
"C[C@@H]1CN(c2cccc(-c3csc(NC(=O)CNC(=O)c4ccn([C@@]5(C)CCOC5)c4)n3)n2)C[C@H](C)O1 (single isomer, unassigned) [Compound 491]",–,–,> 0.01,> 0.01,–
CO[C@@H]1CN(c2cccc(-c3csc(NC(=O)CNC(=O)c4ccn(S(C)(=O)=O)c4)n3)c2)C[C@H]1OC (racemic) [Compound 198],> 0.01,> 0.01,–,–,–
"CCCOC(=O)N1CCC(c2csc(NC(=O)CNC(=O)c3ccn(S(C)(=O)=O)c3)n2)CC1 [Compound 765, propyl 4-[2-[[2-[(1-methylsulfonylpyrrole-3-carbonyl)amino]acetyl]amino]thiazol-4-yl]piperidine-1-carboxylate]",–,–,> 0.1,> 0.01,–
COC[C@H](NC(=O)c1ccn(S(C)(=O)=O)c1)C(=O)Nc1nc(-c2cc(F)cc(OC3CC3)c2)cs1 [Compound 610],–,–,> 0.01,> 0.01,–
"C[C@@H]1CC(c2cccc(-c3csc(NC(=O)CNC(=O)c4ccn(S(C)(=O)=O)c4)n3)n2)=C[C@H](C)O1 (racemic) [Compound 350, N-(2-((4-(6-((cis)-2,6-dimethyl-3,6-dihydro-2H-pyran-4-yl)pyridin-2-yl)thiazol-2-yl)amino)-2-oxoethyl)-1-(methylsulfonyl)-1H-pyrrole-3-carboxamide]",< 0.01,< 0.01,–,–,–
CS(=O)(=O)n1ccc(C(=O)NCC(=O)Nc2nc(-c3cccc(-c4cnnn4C(F)F)c3)cs2)c1 [Compound 278],> 0.01,> 0.01,–,–,–
C[C@@H]1CN(c2cccc(-c3csc(NC(=O)CNC(=O)c4cn(C(C)(C)CO)cn4)n3)n2)C[C@H](C)O1 [Compound 778],–,–,> 0.1,> 0.01,–
"CC(C)(C)n1ccc(C(=O)NCC(=O)Nc2nc(-c3cccc(CO[C@@H]4CCOC4)c3)cs2)c1 [Compound 136, (R)-1-(tert-butyl)-N-(2-oxo-2-((4-(3-(((tetrahydrofuran-3-yl)oxy)methyl)phenyl)thiazol-2-yl)amino)ethyl)-1H-pyrrole-3-carboxamide]",> 0.01,> 0.01,–,–,–
CS(=O)(=O)n1ccc(C(=O)NCC(=O)Nc2nc(-c3cccc([C@H]4CCCCO4)c3)cs2)c1 [Compound 393],–,–,> 0.01,> 0.01,–
"CC(Oc1ccccc1)c1cccc(-c2csc(NC(=O)CNC(=O)c3ccn(S(C)(=O)=O)c3)n2)c1 (stereo not drawn) [Compound 103, 1-(methylsulfonyl)-N-(2-oxo-2-((4-(3-(1-phenoxyethyl)phenyl)thiazol-2-yl)amino)ethyl)-1H-pyrrole-3-carboxamide]",> 0.1,> 0.1,–,–,–
Cc1cc(C)nc(-c2cccc(-c3csc(NC(=O)CNC(=O)c4ccn(S(C)(=O)=O)c4)n3)c2)c1 [Compound 406],–,–,< 0.01,< 0.01,–
CS(=O)(=O)n1ccc(C(=O)NCC(=O)Nc2nc(-c3cccc(-c4ccnc(C5CC5)n4)c3)cs2)c1 [Compound 409],–,–,< 0.01,< 0.01,–
COC1CC2(C1)CN(c1cccc(-c3csc(NC(=O)CNC(=O)c4ccn(S(C)(=O)=O)c4)n3)c1)C2 [Compound 222],> 0.1,> 0.01,–,–,–
"COc1cccc(-c2csc(NC(=O)CNC(=O)c3ccn(S(C)(=O)=O)c3)n2)c1 [Compound 121, N-(2-((4-(3-methoxyphenyl)thiazol-2-yl)amino)-2-oxoethyl)-1-(methylsulfonyl)-1H-pyrrole-3-carboxamide]",> 0.01,> 0.01,–,–,–

SMILES,IC50 (BRG-1; [1]) [µM],IC50 (BRM; [2]) [µM],IC50 (BRG-1; [3]) [µM],IC50 (BRM; [4]) [µM],also measured
N#CC1(n2ccc(C(=O)NCC(=O)Nc3nc(-c4cccc(OC5CC5)c4F)cs3)c2)CC1 [Compound 556],–,–,> 0.1,> 0.01,–
C[C@H](NC(=O)c1ccn(S(C)(=O)=O)c1)C(=O)Nc1nc(-c2cccc(N3CCC3)c2)cs1 [Compound 364],> 0.01,> 0.01,–,–,–
"CS(=O)(=O)n1ccc(C(=O)NCC(=O)Nc2nc(-c3cccc(-c4ccnc(C(F)(F)F)c4)c3)cs2)c1 [Compound 82, 1-(methylsulfonyl)-N-(2-oxo-2-((4-(3-(2-(trifluoromethyl)pyridin-4-yl)phenyl)thiazol-2-yl)amino)ethyl)-1H-pyrrole-3-carboxamide]",< 0.01,< 0.01,–,–,–
Cn1ccc(-c2cccc(-c3csc(NC(=O)CNC(=O)c4cn(C5(C#N)CC5)cn4)n3)c2)n1 [Compound 780],–,–,> 0.1,> 0.1,–
CC1(C)C=C(c2cccc(-c3csc(NC(=O)CNC(=O)c4ccn(S(C)(=O)=O)c4)n3)c2)CC(C)(C)O1 [Compound 411],–,–,> 0.01,> 0.01,–
CN1C(=O)CC[C@H]2CN(c3cccc(-c4csc(NC(=O)CNC(=O)c5ccn(C(C)(C)C)c5)n4)n3)CC[C@H]21 [Compound 641],–,–,> 0.1,> 0.1,–
CS(=O)(=O)n1ccc(C(=O)NCC(=O)Nc2nc(-c3ccc4c(c3)N(C3CCOC3)CC4)cs2)c1 (stereo not drawn) [Compound 467],–,–,> 0.01,> 0.01,–
CC(C)(C)n1ccc(C(=O)NCC(=O)Nc2nc(-c3cccc(C4CCCCO4)c3)cs2)c1 (stereo not drawn) [Compound 432],–,–,> 0.01,> 0.01,–
C[C@@H]1CN(c2cccc(-c3csc(NC(=O)CNC(=O)c4ccn(C(C)(C)C)n4)n3)n2)C[C@H](C)O1 [Compound 344],> 0.01,> 0.01,–,–,–
C[C@@H]1CN(c2cccc(-c3csc(NC(=O)CNC(=O)c4ccn(S(C)(=O)=O)c4)n3)c2)CC[C@@H]1O [Compound 188],> 0.01,< 0.01,–,–,–
CS(=O)(=O)n1ccc(C(=O)NCC(=O)Nc2nc(-c3cccc(OC4CCOCC4)c3)cs2)c1 [Compound 279],> 0.01,> 0.01,–,–,–
CN[C@H]1CCN(c2cccc(-c3csc(NC(=O)CNC(=O)c4ccn(S(C)(=O)=O)c4)n3)n2)CC1(F)F [Compound 760],–,–,> 0.1,> 0.1,–
CS(=O)(=O)n1ccc(C(=O)NCC(=O)Nc2nc(-c3cccc(OC4CCCOC4)c3)cs2)c1 (stereo not drawn) [Compound 274],> 0.01,> 0.01,–,–,–
C[C@@H]1CC(c2cccc(-c3csc(NC(=O)CNC(=O)c4ccn(S(C)(=O)=O)c4)n3)c2)=C[C@H](C)O1 (racemic) [Compound 391],–,–,< 0.01,< 0.01,–
CC(C)(C)n1ccc(C(=O)NCC(=O)Nc2nc(-c3cccc(N4CCc5ccncc5C4)n3)cs2)c1 [Compound 632],–,–,> 0.01,> 0.01,–
COC[C@H](NC(=O)c1ccn(S(C)(=O)=O)c1)C(=O)Nc1nc(-c2cccc(-c3cnn(C)n3)c2)cs1 [Compound 352],< 0.01,< 0.01,–,–,–
C[C@@H]1CN(c2cc(-c3csc(NC(=O)CNC(=O)c4ccn(S(C)(=O)=O)c4)n3)ccc2F)C[C@H](C)O1 [Compound 293],< 0.01,< 0.01,–,–,–
"Cn1nc(-c2cccc(-c3csc(NC(=O)CNC(=O)c4ccn(C(C)(C)C)c4)n3)c2)cc1CO [Compound 26, 1-(tert-butyl)-N-(2-((4-(3-(5-(hydroxymethyl)-1-methyl-1H-pyrazol-3-yl)phenyl)thiazol-2-yl)amino)-2-oxoethyl)-1H-pyrrole-3-carboxamide]",> 0.01,> 0.01,–,–,–
CO[C@]1(C)CCCN(c2cccc(-c3csc(NC(=O)CNC(=O)c4ccn(S(C)(=O)=O)c4)n3)c2)C1 [Compound 257],> 0.01,> 0.01,–,–,–
CS(=O)(=O)n1ccc(C(=O)NCC(=O)Nc2nc(-c3cccc(-c4cn(C(F)F)nn4)c3)cs2)c1 [Compound 275],> 0.01,> 0.01,–,–,–
C[C@@H]1CN(c2cccc(-c3csc(NC(=O)CNC(=O)c4ccn(C5(C#N)COC5)c4)n3)n2)C[C@H](C)O1 [Compound 602],–,–,< 0.01,< 0.01,–
"Cn1ncc2ccc(-c3csc(NC(=O)CNC(=O)c4ccn(C(C)(C)C)c4)n3)cc21 [Compound 131, 1-(tert-butyl)-N-(2-((4-(1-methyl-1H-indazol-6-yl)thiazol-2-yl)amino)-2-oxoethyl)-1H-pyrrole-3-carboxamide]",> 0.1,> 0.01,–,–,–
